# Test results from patent US20140004108A1, “Methods for Modulation of Autophagy Through the Modulation of Autophagy-Enhancing Gene Products” (HARVARD MEDICAL SCHOOL, priority 2009, published 2014).
# “Also recorded” adds a separate entry of the source.
# B1: CLCF1: human CLCF1 (R&D Systems); cardiotrophin-like cytokine factor 1 (protein, UniProt Q9UBD9 28-225, looked up)
# Cardiotrophin-like cytokine …: LNRTGDPGPGPSIQKTYDLTRYLEHQLRSLAGTYLNYLGPPFNEPDFNPPRLGAETLPRATVDLEVWRSLNDKLRLTQNYEAYSHLLCYLRGLNRQAATAELRRSLAHFCTSLQGLLGSIAGVMAALGYPLPQPLPGTEPTWTPGPAHSDFLQKMDDFWLLKELQTWLWRSAKDFNRLKKKMQPPAAAVTLHLGAHGF
# How the values were obtained:
# Format in all cases: cell-based, human
# [1] = test system: LC3; assay: Western blot of autophagy markers (LC3 II, p62, Atg12-Atg5); details: for autophagy by LC3 western blot (LC3 II/tubulin ratio): 100 ng/mL IGF1, 50 ng/mL FGF2, LIF or CLCF1, 10 μg/mL E64d, with or without 50 nM rapamycin pre-treatment
# Protocol: (§1) For the cytokine assays, cells were seeded at 0.5×10^5 in full medium in either 24-well (western) or 96-well (LC3-GFP quantification) plates. After 24 hours, cells were washed in PBS and serum-free OPTIMEM™ medium (Invitrogen) was added along with the indicated growth factors and/or cytokines for an additional 24 hours. Growth factors and cytokines used include human TNFα (Cell Sciences), human LIF (GeneScript Corporation), human FGF2 (ProSpec), human IGF1 (ProSpec), human SDF1 (Prospec) and human CLCF1 (R&D Systems). To induce starvation, cells were cultured for 24 hours in full media, washed in PBS and cultured for additional 4 hours in HBSS media (Invitrogen).
# (§2) For western blot analysis, lysosomal protease inhibitor E64d (Sigma) was added at a concentration of 10 μg/mL for the last 8-12 hours before cell lysis.
# (§3) For western blots, cells were lysed in Lammeli sample buffer, resolved on a 10-12% SDS-PAGE gel and transferred to PVDF membrane. The following antibodies were used: LC3 (Novus), p62 (Pharmigen), phospho-S6K (Thr389), phospho-Akt (Ser473), phospho-Stat3 (Tyr705), RelA, Sod1, phospho-PTEN (Ser380/Thr382/383) (all Cell Signaling), Bcl-2 (Santa Cruz), all at 1:1000, phospho-S6 (Ser235/236) (Cell Signaling) and phospho-ERK 1/2 (Sigma) at 1:2000, tubulin (Sigma) at 1:5000. Where indicated, blots were quantified using NIH ImageJ64 software.
# [2] = test system: H4 cells; assay: Western blot of signalling phosphorylation (phospho-ERK1/2, RSK, Stat3, Akt, Foxo3a, S6K); details: for activating phosphorylation of Stat3: H4, 50 ng/mL LIF or CLCF1
# Protocol: as §1, §3
# [3] = test system: H4 cells stably expressing LC3-GFP; assay: LC3-GFP translocation to autophagosomes, image-based autophagy assay; details: for autophagy as measured by LC3-GFP translocation: H4 LC3-GFP cells grown in serum-free medium, treated with cytokine
# Protocol: (§4) H4 human neuroblastoma cells were cultured under standard tissue culture conditions in DMEM media supplemented with 10% normal calf serum, penicillin/streptomycin, sodium pyruvate (Invitrogen) and, where appropriate, 0.4-1.2 mg/mL G418. LC3-GFP and FYVE-dsRed H4 cells were generated as described in Zhang et al., PNAS, 102, 15545-15550 ([…]). To create a stable line expressing Lamp1, H4 cells were transfected with Lamp1-RFP plasmid using TRANSIT_LT1® transfection reagent (Mirus), followed by selection with 0.4 mg/mL G418. Bcl-2 expressing cell lines were created by infecting LC3-GFP and FYVE-dsRed H4 cells with pBabe-Bcl-2 retrovirus, followed by selection with 1 μg/mL puromycin.
# as §1, §2
# For the primary screens, an arrayed library of 21,121 siRNA pools covering the majority of the human genome were used (Dharmacon siARRAY™ siRNA library (Human Genome, G-005000-05), Thermo Fisher Scientific, Lafayette, Colo.). Each pool contained of 4 unique oligonucleotides targeting different sequences from the same gene. Each assay plate also included the following controls: non-targeting siRNA, mTOR siRNA, ATG5 siRNA and PLK1 siRNA (a transfection efficiency control). siRNAs were transiently transfected in triplicate into H4 cells stably expressing a LC3-GFP reporter at a final concentration of 40 nM using reverse transfection with the […]® reagent (Qiagen). […]® reagent was diluted 1:20 in DMEM and 8 μl of the mixture was added to wells of 384 well plates. The plates were centrifuged at 1,000 rpm, after which 2 μl of 1 μM arrayed siRNA pools were added to each well. After 30 minutes of incubation, 500 cells in 40 μl of media were added to the wells. Cells were incubated for 72 hours under standard culture conditions, counterstained with 0.5 μM Hoechst 33342 (Invitrogen) for 1 hour and fixed by addition of 30 μl of 8% paraformaldehyde. After 30 minutes, cells were washed 3 times with PBS prior to analysis.
# For secondary screens, a siRNA library was used in which the 4 siRNAs of each siRNA pool were separated into individual wells. The cells were transfected and treated as in the primary screen, except that siRNAs were used at a final concentration of 30 nM (1.5 μL/well of 1 uM stock) and […]® reagent was diluted 1:30 in OPTIMEM™ (Invitrogen). The secondary screen transfections were done in 2 rounds: in the first one a 1:1 mixture of H4 cells stably expressing LC3-GFP with FYVE-dsRed was transfected in triplicate; in the second round a 1:1 mixture of H4 cells expressing LC3-GFP with Lamp1-RFP was transfected in duplicate. All tertiary characterization screens were done in duplicate using a mixture of LC3-GFP and FYVE-dsRed cells. Each assay plate included 10-12 wells of non-targeting siRNA as well as mTOR, ATG5, PLK1 and, depending on screen, Vps34 or SOD1 siRNA controls.
# (§5) For high-throughput screens, cells were imaged on an automated CellWoRx microscope (Applied Precision) at 10× magnification using 2 wavelengths (350 nm to detect Hoechst, 488 nm to detect LC3-GFP) for the primary screens and 3 wavelengths (350 nm, 488 nm and 550 nm to detect Lamp1-RFP or FYVE-dsRed) for the secondary screens.
# [4] = test system: type III PI3 kinase; assay: FYVE-dsRed vesicle recruitment (PtdIns3P levels); details: FYVE-dsRed cells, 3MA 10 mM 8 hours or NAC
# Protocol: as §4, §5
# [5] = test system: GRP78 and GRP94; assay: In-cell-western of KDEL (GRP78/GRP94) expression, ER stress; details: H4 cells
# Protocol: For quantitative analysis of mTORC1 signaling and induction of endoplasmic reticulum stress, in-cell-western analysis of rpS6 phosphorylation and KDEL (GRP78/GRP94) expression (‘KDEL’ disclosed as SEQ ID NO: 2), respectively, were performed. H4 cells were cultured in 384-well plates and fixed and counterstained as described for the LC3-GFP assay. Following imaging, the cells were permeabilized in PBS containing 0.2% Tx-100 and stained with ALEXA FLOUR®—680NHS-ester, a non-specific lysine reactive probe used to measure relative cell number, at 20 ng/mL for 15 minutes. Subsequently, the cells were washed with PBS containing 0.2% Tx-100 and incubated for 30 minutes in blocking buffer (LICOR® Blocking Buffer diluted 1:1 with PBS+0.2% Tx-100). Cells were then incubated overnight with a rabbit-anti-rpS6 phospho-235/236 (Cell Signaling Technologies), or mouse-anti-KDEL (Stressgen) antibody (‘KDEL’ disclosed as SEQ ID NO: 2) diluted 1:1000 in blocking buffer. […] The intensities of both, the rpS6 phospho-235/236 or KDEL staining (‘KDEL’ disclosed as SEQ ID NO: 2), and of NHS-ester staining were integrated, and the normalized phospho-S6 or KDEL score (‘KDEL’ disclosed as SEQ ID NO: 2) were calculated by dividing phospho-rpS6 or KDEL intensity (‘KDEL’ disclosed as SEQ ID NO: 2) by NHS-ester intensity. […]
molecule,measurement,setting,value
"O=c1[nH]c2ccccc2n1C1CCN(Cc2ccc(-c3nc4cc5[nH]cnc5cc4nc3-c3ccccc3)cc2)CC1 [Akt inhibitor VIII, reference compound]","inhibition of autophagy by IGF1, effect of Akt inhibitor","[1]; 100 ng/mL IGF1, LC3 western",prevented inhibition of autophagy by IGF1
same,phosphorylation of Foxo3a and S6 kinase,[2]; IGF1-treated cells with Akt inhibitor VIII,attenuated phosphorylation of both Foxo3a and the mTORC1 target S6 kinase
"CC(=O)N[C@@H](CS)C(=O)O [NAC, N-acetyl-L-cysteine, reference compound]",induction of autophagy caused by knock-down of Sod1,"[3]; H4 LC3-GFP, with antioxidant NAC 2.5 mM",significantly attenuated induction of autophagy
same,Aβ-induced accumulation of PtdIns3P in presence of inhibitor or antioxidant,[4],suppressed
"N#CC(=C(/N)Sc1ccccc1N)/C(C#N)=C(/N)Sc1ccccc1N [UO126, reference compound]","inhibition of autophagy by FGF2, effect of MEK inhibitor","[1]; H4, serum-free, 50 ng/mL FGF2, 10 μg/mL E64d, pre-treatment with UO126",attenuated inhibition of autophagy; also recorded: prevented
FGF2: human FGF2 (ProSpec); fibroblast growth factor 2 (basic),autophagy as measured by LC3-GFP translocation,[3],significant down-regulation of autophagy
same,autophagy by LC3 western blot (LC3 II/tubulin ratio),"[1]; H4, serum-free",able to suppress autophagy in the absence and presence of rapamycin
same,phospho-ERK1/2 and phospho-RSK levels,"[2]; H4, serum-free, 50 ng/mL FGF2",increased level of phospho-ERK1/2 and phospho-RSK
IGF1: human IGF1 (ProSpec); insulin-like growth factor 1,autophagy as measured by LC3-GFP translocation,[3],significant down-regulation of autophagy
same,autophagy by LC3 western blot (LC3 II/tubulin ratio),"[1]; H4, serum-free",able to suppress autophagy in the absence and presence of rapamycin
same,phosphorylation of Akt and Foxo3a,"[2]; in both the absence and presence of rapamycin, 100 ng/mL IGF1",increased
LIF: human LIF (GeneScript Corporation); leukemia inhibitory factor,autophagy as measured by LC3-GFP translocation,[3],significant down-regulation of autophagy
same,autophagy by LC3 western blot (LC3 II/tubulin ratio),"[1]; H4, serum-free",able to suppress autophagy in the absence and presence of rapamycin
same,activating phosphorylation of Stat3,[2],increased activating phosphorylation of Stat3
SDF1: human SDF1 (Prospec); chemokine SDF1 (CXCL12),autophagy as measured by LC3-GFP translocation,[3],significant down-regulation of autophagy
TNFα,"autophagy (LC3-GFP), higher doses","[3]; H4 LC3-GFP cells in defined medium, higher doses of TNFα",up-regulation of autophagy
same,"autophagy (LC3-GFP), low doses","[3]; H4 LC3-GFP cells in defined medium, low doses of TNFα",down-regulation of autophagy
same,p62 level by western blot,"[1]; H4 cells, low levels of TNFα (5 ng/ml, FIG. 31B)",significant accumulation of p62
tunicamycin [reference compound],autophagy after ER stress inducer,[3]; H4 cells,increase in autophagy
same,levels of GRP78 and GRP94 (ER stress markers),[5],dose-dependent up-regulation of GRP78 and GRP94
B1,autophagy as measured by LC3-GFP translocation,[3],significant down-regulation of autophagy
same,autophagy by LC3 western blot (LC3 II/tubulin ratio),"[1]; H4, serum-free",able to suppress autophagy in the absence and presence of rapamycin
same,activating phosphorylation of Stat3,[2],increased activating phosphorylation of Stat3
